Target: Acetyl-CoA carboxylase 2 (Homo sapiens, UniProt O00763)
Test: Binding affinity to human His-tagged acetyl-CoA-carboxylase biotin carboxylase domain
Conditions: read-out: Kd(app)

Sequence of Acetyl-CoA carboxylase 2 (O00763 whole entry, the tested form may be a part): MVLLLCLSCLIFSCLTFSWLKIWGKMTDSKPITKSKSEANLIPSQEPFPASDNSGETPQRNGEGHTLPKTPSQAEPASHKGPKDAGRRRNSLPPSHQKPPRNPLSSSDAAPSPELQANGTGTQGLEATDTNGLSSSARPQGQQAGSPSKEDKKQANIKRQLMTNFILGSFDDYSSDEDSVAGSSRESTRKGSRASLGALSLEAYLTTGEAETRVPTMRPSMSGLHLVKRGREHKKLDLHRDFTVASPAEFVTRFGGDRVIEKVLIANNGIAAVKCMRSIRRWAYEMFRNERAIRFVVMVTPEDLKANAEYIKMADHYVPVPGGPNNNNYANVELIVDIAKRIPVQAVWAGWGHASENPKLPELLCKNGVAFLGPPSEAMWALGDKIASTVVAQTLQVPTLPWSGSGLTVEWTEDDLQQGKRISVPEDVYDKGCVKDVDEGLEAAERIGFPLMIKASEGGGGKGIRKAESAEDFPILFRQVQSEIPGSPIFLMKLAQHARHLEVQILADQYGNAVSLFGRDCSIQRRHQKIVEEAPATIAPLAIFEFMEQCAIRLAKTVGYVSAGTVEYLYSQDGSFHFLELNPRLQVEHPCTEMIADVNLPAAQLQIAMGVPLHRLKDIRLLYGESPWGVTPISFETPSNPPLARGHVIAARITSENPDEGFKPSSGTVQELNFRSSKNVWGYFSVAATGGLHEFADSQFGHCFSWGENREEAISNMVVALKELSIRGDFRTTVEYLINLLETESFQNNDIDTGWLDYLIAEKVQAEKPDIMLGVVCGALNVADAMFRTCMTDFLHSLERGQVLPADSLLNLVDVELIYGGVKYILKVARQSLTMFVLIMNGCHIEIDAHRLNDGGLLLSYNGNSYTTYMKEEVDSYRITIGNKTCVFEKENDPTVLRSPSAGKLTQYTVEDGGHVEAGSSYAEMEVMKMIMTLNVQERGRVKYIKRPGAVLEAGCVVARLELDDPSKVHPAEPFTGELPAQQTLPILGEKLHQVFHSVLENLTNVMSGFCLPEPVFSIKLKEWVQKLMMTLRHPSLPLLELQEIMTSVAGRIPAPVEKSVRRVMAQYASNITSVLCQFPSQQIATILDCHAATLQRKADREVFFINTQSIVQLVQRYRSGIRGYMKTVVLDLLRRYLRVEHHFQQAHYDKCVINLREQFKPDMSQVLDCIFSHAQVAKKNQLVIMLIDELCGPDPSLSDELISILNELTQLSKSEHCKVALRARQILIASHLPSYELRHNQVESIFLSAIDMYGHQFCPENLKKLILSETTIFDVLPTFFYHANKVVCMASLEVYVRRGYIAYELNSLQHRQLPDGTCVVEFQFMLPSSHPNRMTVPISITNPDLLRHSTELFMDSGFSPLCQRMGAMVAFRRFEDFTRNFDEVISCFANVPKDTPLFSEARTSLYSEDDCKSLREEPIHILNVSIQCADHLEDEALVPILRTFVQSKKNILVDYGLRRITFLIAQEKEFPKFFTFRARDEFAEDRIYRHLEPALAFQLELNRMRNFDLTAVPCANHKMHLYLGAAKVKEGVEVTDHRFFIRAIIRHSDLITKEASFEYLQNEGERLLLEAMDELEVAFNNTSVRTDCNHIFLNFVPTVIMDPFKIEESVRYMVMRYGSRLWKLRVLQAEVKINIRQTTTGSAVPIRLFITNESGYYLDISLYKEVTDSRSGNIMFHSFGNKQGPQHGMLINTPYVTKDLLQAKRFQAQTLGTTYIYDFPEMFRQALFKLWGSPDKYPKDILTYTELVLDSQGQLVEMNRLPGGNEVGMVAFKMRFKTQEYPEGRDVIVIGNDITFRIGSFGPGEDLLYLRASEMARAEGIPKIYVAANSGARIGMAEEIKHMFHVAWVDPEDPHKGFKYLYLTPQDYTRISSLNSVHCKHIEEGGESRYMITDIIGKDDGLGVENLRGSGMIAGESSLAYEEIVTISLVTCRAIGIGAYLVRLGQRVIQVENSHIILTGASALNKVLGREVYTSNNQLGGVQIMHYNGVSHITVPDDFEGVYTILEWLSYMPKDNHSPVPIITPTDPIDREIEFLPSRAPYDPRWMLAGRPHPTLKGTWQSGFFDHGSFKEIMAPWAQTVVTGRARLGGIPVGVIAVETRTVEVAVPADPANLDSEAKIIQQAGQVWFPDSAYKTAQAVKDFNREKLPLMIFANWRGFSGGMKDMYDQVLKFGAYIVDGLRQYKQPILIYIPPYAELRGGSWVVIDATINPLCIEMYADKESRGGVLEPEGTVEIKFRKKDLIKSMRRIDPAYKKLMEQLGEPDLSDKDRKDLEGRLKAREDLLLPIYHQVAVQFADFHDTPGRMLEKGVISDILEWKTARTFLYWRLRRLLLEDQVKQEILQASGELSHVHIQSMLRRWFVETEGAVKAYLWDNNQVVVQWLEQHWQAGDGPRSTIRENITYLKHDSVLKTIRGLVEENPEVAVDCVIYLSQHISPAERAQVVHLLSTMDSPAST

## CO[C@H]1CCCC[C@@H](c2ccccc2)OC(=O)[C@@H](C)[C@@]2(O)O[C@H]([C@@H](C)[C@H](O)[C@H]2OC)[C@@H](C)/C=C/[C@H]1OC(=O)CCC1=[N+]2C(=Cc3c(C)cc(C)n3[B-]2(F)F)C=C1
  Kd: 3 nM

Source: ChEMBL document CHEMBL1152904, “Synthesis and characterization of a BODIPY-labeled derivative of Soraphen A that binds to acetyl-CoA carboxylase” (Bioorg Med Chem Lett, 2009)
